Measurements published in patent publication US20230348426A1, “OXOPYRROLIDINE FPR2 AGONISTS” (Bristol-Myers Squibb Company, priority 2020, published 2023).

Tests used:
human FPR1 = human FPR1 (Homo sapiens (Human), UniProt P21462); assay: FPR1 cyclic adenosine monophosphate (cAMP) assay; assay type: cell-based; conditions: CHO cells overexpressing human FPR1; forskolin 10 µM; inhibition of cAMP production; read-out: hFPR1 cAMP EC50
From the text: (§1) N-formyl peptide receptors (FPRs) are a family of chemo attractant receptors that facilitate leukocyte response during inflammation. FPRs belong to the seven-transmembrane G protein-coupled receptor superfamily and are linked to inhibitory G-proteins (Gi). Three family members (FPR1, FPR2 and FPR3) have been identified in humans and are predominantly found in myeloid cells with varied distribution and have also been reported in multiple organs and tissues. After agonist binding, the FPRs activate a multitude of physiological pathways, such as intra cellular signaling transduction, Ca^2+ mobilization and transcription. The family interacts with a diverse set of ligands that includes proteins, polypeptides and fatty acid metabolites which activate both pro-inflammatory and pro-resolution downstream responses. FPR2 and FPR1 Cyclic Adenosine Monophosphate (cAMP) Assays were used to measure the activity of the compounds in this patent.
FPR2 and FPR1 Cyclic Adenosine Monophosphate (cAMP) Assays. A mixture of forskolin (5 µM final for FPR2 or 10 µM final for FPR1) and IBMX (200 µM final) were added to 384-well Proxiplates (Perkin-Elmer) pre-dotted with test compounds in DMSO (1% final) at final concentrations in the range of 0.020 nM to 100 µM. Chinese Hamster Ovary cells (CHO) overexpressing human FPR1 or human FPR2 receptors were cultured in F-12 (Ham’s) medium supplemented with 10% qualified FBS, 250 µg/ml zeocin and 300 µg/ml hygromycin (Life Technologies). Reactions were initiated by adding 2,000 human FPR2 cells per well or 4,000 human FPR1 cells per well in Dulbecco’s PBS (with calcium and magnesium) (Life Technologies) supplemented with 0.1% BSA (Perkin-Elmer). The reaction mixtures were incubated for 30 min at room temperature. The level of intracellular cAMP was determined using the HTRF HiRange cAMP assay reagent kit (Cisbio) according to manufacturer’s instruction. Solutions of cryptate conjugated anti-cAMP and d2 flurorophore-labelled cAMP were made in a supplied lysis buffer separately. Upon completion of the reaction, the cells were lysed with equal volume of the d2-cAMP solution and anti-cAMP solution. […] The potency and activity of a compound to inhibit cAMP production was then determined by fitting to a 4-parametric logistic equation from a plot of cAMP level versus compound concentrations.

human FPR2 = human FPR2 (Homo sapiens (Human), UniProt P25090); assay: FPR2 cyclic adenosine monophosphate (cAMP) assay; assay type: cell-based; conditions: CHO cells overexpressing human FPR2; forskolin 5 µM; inhibition of cAMP production; read-out: hFPR2 cAMP2 EC50
From the text: as §1
FPR2 and FPR1 Cyclic Adenosine Monophosphate (cAMP) Assays. A mixture of forskolin (5 µM final for FPR2 or 10 µM final for FPR1) and IBMX (200 µM final) were added to 384-well Proxiplates (Perkin-Elmer) pre-dotted with test compounds in DMSO (1% final) at final concentrations in the range of 0.020 nM to 100 µM. Chinese Hamster Ovary cells (CHO) overexpressing human FPR1 or human FPR2 receptors were cultured in F-12 (Ham’s) medium supplemented with 10% qualified FBS, 250 µg/ml zeocin and 300 µg/ml hygromycin (Life Technologies). Reactions were initiated by adding 2,000 human FPR2 cells per well or 4,000 human FPR1 cells per well in Dulbecco’s PBS (with calcium and magnesium) (Life Technologies) supplemented with 0.1% BSA (Perkin-Elmer). The reaction mixtures were incubated for 30 min at room temperature. The level of intracellular cAMP was determined using the HTRF HiRange cAMP assay reagent kit (Cisbio) according to manufacturer’s instruction. Solutions of cryptate conjugated anti-cAMP and d2 flurorophore-labelled cAMP were made in a supplied lysis buffer separately. Upon completion of the reaction, the cells were lysed with equal volume of the d2-cAMP solution and anti-cAMP solution. After a 1-h room temperature incubation, time-resolved fluorescence intensity was measured using the Envision (Perkin-Elmer) at 400 nm excitation and dual emission at 590 nm and 665 nm. A calibration curve was constructed with an external cAMP standard at concentrations ranging from 1 µM to 0.1 pM by plotting the fluorescent intensity ratio from 665 nm emission to the intensity from the 590 nm emission against cAMP concentrations. The potency and activity of a compound to inhibit cAMP production was then determined by fitting to a 4-parametric logistic equation from a plot of cAMP level versus compound concentrations.

Sequence of human FPR2 (P25090 whole entry): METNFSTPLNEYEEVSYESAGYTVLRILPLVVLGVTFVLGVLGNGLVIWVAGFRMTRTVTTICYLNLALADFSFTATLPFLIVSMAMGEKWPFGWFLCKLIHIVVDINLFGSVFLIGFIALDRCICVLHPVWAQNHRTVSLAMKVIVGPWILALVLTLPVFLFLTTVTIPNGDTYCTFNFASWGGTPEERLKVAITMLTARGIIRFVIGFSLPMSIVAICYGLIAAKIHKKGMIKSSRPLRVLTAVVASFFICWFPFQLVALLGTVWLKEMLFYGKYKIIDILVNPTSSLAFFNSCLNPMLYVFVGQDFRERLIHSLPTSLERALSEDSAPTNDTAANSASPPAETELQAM
Sequence of human FPR1 (P21462 whole entry): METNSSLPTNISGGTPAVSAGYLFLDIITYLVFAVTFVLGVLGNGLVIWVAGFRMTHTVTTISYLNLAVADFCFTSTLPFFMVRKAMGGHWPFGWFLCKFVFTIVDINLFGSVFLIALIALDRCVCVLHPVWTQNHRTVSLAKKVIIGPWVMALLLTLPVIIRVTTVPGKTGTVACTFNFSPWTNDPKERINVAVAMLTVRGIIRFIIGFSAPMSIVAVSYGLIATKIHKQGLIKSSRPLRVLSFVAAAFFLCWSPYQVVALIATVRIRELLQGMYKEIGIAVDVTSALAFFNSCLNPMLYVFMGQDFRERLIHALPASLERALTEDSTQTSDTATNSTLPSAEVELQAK

SMILES | EC50 (human FPR1) | EC50 (human FPR2)
COCC(CN)n1cccc(N2C[C@@H](c3c(F)cc(OC)cc3F)[C@H](NC(=O)c3ccc(OC(F)(F)F)cc3)C2=O)c1=O (stereo partly shown) [Example 78] | 5.2 nM | 2 nM
CCn1cccc(N2C(=O)[C@@H](NC(=O)c3ccc(OC(F)F)cc3)[C@H](c3c(F)cc(OC)cc3F)[C@@H]2C)c1=O [Example 80] | 130 nM | 2.1 nM
COCCn1cccc(N2C[C@@H](c3ccc(OC)cc3F)[C@H](NC(=O)c3ccc(OC(F)F)cc3)C2=O)c1=O [Example 81] | 2.7 nM | 2.2 nM
CCn1cccc(N2C[C@@H](c3ccc(OC)cc3F)[C@H](NC(=O)c3ccc(OC(F)(F)F)cc3)C2=O)c1=O [Example 82] | 5.3 nM | 2.2 nM
CCn1cccc(N2C[C@@H](c3ccc(OC)cc3F)[C@H](NC(=O)c3ccc(OC(F)F)cc3)C2=O)c1=O [Example 83] | 7.6 nM | 2.2 nM
COc1cc(F)c([C@@H]2CN(c3nc(NC4CCOC4)ccc3F)C(=O)[C@H]2NC(=O)c2ccc(OC(F)(F)F)cc2)c(F)c1 (stereo partly shown) [Example 84] | 120 nM | 2.3 nM
COc1cc(F)c([C@@H]2CN(c3cccn(CCN(C)C)c3=O)C(=O)[C@H]2NC(=O)c2ccc(OC(F)(F)F)cc2)c(F)c1 [Example 85] | 160 nM | 2.3 nM
COc1cc(F)c([C@@H]2CN(c3c(C)ccn(CC(F)F)c3=O)C(=O)[C@H]2NC(=O)c2ccc(OC(F)(F)F)cc2)c(F)c1 [Example 86] | 4.1 nM | 2.3 nM
COc1cc(F)c([C@@H]2CN(c3ccc[nH]c3=O)C(=O)[C@H]2NC(=O)c2ccc(Cl)cc2)c(F)c1 [Example 87] | 750 nM | 2.3 nM
COc1cc(F)c([C@@H]2CN(c3cccn(CC(C)O)c3=O)C(=O)[C@H]2NC(=O)c2ccc(OC(F)(F)F)cc2)c(F)c1 (stereo partly shown) [Example 89] | 45 nM | 2.4 nM
COc1cc(F)c([C@@H]2CN(c3c(C)ccn(CC(F)F)c3=O)C(=O)[C@H]2NC(=O)c2ccc(OC(F)F)cc2)c(F)c1 [Example 90] | 3.5 nM | 2.5 nM
COc1ccc([C@@H]2CN(c3cccn(CC(F)F)c3=O)C(=O)[C@H]2NC(=O)c2ccc(OC(F)F)cc2)cc1 [Example 91] | 16 nM | 2.6 nM
COCC(C(=O)N(C)C)n1cccc(N2C[C@@H](c3c(F)cc(OC)cc3F)[C@H](NC(=O)c3ccc(OC(F)F)cc3)C2=O)c1=O (stereo partly shown) [Example 92] | 3.6 nM | 2.6 nM
CCn1cccc(N2C(=O)[C@@H](NC(=O)c3ccc(OC(F)(F)F)cc3)[C@H](c3c(F)cc(OC)cc3F)[C@@H]2C)c1=O [Example 93] | 68 nM | 2.6 nM
COc1cc(F)c([C@@H]2CN(c3cccn(C(F)F)c3=O)C(=O)[C@H]2NC(=O)c2ccc(Cl)cc2)c(F)c1 [Example 94] | 95 nM | 2.7 nM
COc1cc(F)c([C@@H]2CN(c3ccc[nH]c3=O)C(=O)[C@H]2NC(=O)c2ccc(OC(F)F)cc2)c(F)c1 [Example 95] | 160 nM | 2.7 nM
COc1cc(F)c([C@@H]2CN(c3cccn(CC4CC(F)(F)C4)c3=O)C(=O)[C@H]2NC(=O)c2ccc(OC(F)F)cc2)c(F)c1 [Example 96] | 46 nM | 2.7 nM
COc1cc(F)c([C@@H]2CN(c3cccn(CCN(C)C)c3=O)C(=O)[C@H]2NC(=O)c2ccc(OC(F)F)cc2)c(F)c1 [Example 97] | 350 nM | 2.7 nM
CCn1cccc(N2C[C@@H](c3c(F)cc(OC)cc3F)[C@H](NC(=O)c3ccc(Cl)cc3)C2=O)c1=O [Example 98] | 43 nM | 2.7 nM
COc1cc(F)c([C@@H]2CN(c3cccn(CCN4CCOCC4)c3=O)C(=O)[C@H]2NC(=O)c2ccc(OC(F)F)cc2)c(F)c1 [Example 99] | 330 nM | 2.7 nM
COCCn1cccc(N2C(=O)[C@@H](NC(=O)c3ccc(OC(F)(F)F)cc3)[C@H](c3c(F)cc(OC)cc3F)[C@@H]2C)c1=O [Example 100] | 22 nM | 2.7 nM
O=C(N[C@@H]1C(=O)N(c2cccn(CCO)c2=O)C[C@H]1c1ccc(Cl)cc1)c1ccc(OC(F)(F)F)cc1 [Example 102] | 4.7 nM | 2.8 nM
COc1cc(F)c([C@@H]2CN(c3cccn(CC(C)OC)c3=O)C(=O)[C@H]2NC(=O)c2ccc(OC(F)(F)F)cc2)c(F)c1 (stereo partly shown) [Example 103] | 1.9 nM | 2.8 nM
COc1cc(F)c([C@@H]2CN(c3cccn(CC(C)O)c3=O)C(=O)[C@H]2NC(=O)c2ccc(OC(F)F)cc2)c(F)c1 (stereo partly shown) [Example 104] | 120 nM | 2.9 nM

Second part, the compound after the results:

EC50 (human FPR1) | EC50 (human FPR2) | SMILES
65 nM | 2.9 nM | COCCn1cccc(N2C(=O)[C@@H](NC(=O)c3ccc(OC(F)F)cc3)[C@H](c3c(F)cc(OC)cc3F)[C@@H]2C)c1=O [Example 105]
870 nM | 2.9 nM | COc1cc(NCCO)nc(N2C[C@@H](c3c(F)cc(OC)cc3F)[C@H](NC(=O)c3ccc(Cl)cc3)C2=O)c1 [Example 106]
5.7 nM | 2.9 nM | COCCn1cccc(N2C[C@@H](c3ccc(Cl)cc3)[C@H](NC(=O)c3ccc(OC(F)(F)F)cc3)C2=O)c1=O [Example 107]
0.4 nM | 2.9 nM | COc1ccc([C@@H]2CN(c3c(C)ccn(CCO)c3=O)C(=O)[C@H]2NC(=O)c2ccc(OC(F)(F)F)cc2)cc1 [Example 108]
500 nM | 2.9 nM | COc1cc(F)c([C@@H]2CN(c3nccc(N4C[C@@H](C)N(C)[C@@H](C)C4)c3C(F)(F)F)C(=O)[C@H]2NC(=O)c2ccc(OC(F)F)cc2)c(F)c1 [Example 109]
20 nM | 2.9 nM | O=C(N[C@@H]1C(=O)N(c2cccn(CCO)c2=O)C[C@H]1c1ccc(Cl)cc1)c1ccc(OC(F)F)cc1 [Example 110]
1100 nM | 3 nM | COc1cc(F)c([C@@H]2CN(c3nc(C)ccc3F)C(=O)[C@H]2NC(=O)c2ccc(Cl)cc2)c(F)c1 [Example 111]
2.8 nM | 3 nM | COCC(CO)n1ccc(C)c(N2C[C@@H](c3c(F)cc(OC)cc3F)[C@H](NC(=O)c3ccc(OC(F)F)cc3)C2=O)c1=O (stereo partly shown) [Example 112]
16 nM | 3 nM | COCCn1cccc(N2C[C@@H](c3c(F)cc(OC)cc3F)[C@H](NC(=O)c3ccc(OC(F)F)cc3)C2=O)c1=O [Example 113]
5.9 nM | 3 nM | COc1cc(F)c([C@@H]2CN(c3nc(N(C)C(C)=O)ccc3F)C(=O)[C@H]2NC(=O)c2ccc(OC(F)(F)F)cc2)c(F)c1 [Example 114]
2.4 nM | 3.1 nM | COc1cc(F)c([C@@H]2CN(c3c(C)ccn(CCO)c3=O)C(=O)[C@H]2NC(=O)c2ccc(OC(F)(F)F)cc2)c(F)c1 [Example 115]
34 nM | 3.1 nM | COc1cc(F)c([C@@H]2CN(c3cccn(C4CC4)c3=O)C(=O)[C@H]2NC(=O)c2ccc(C(F)(F)F)cc2)c(F)c1 [Example 116]
210 nM | 3.1 nM | COc1cc(F)c([C@@H]2CN(c3nc(N4CC(F)(F)C4)ccc3F)C(=O)[C@H]2NC(=O)c2ccc(OC(F)F)cc2)c(F)c1 [Example 117]
4.1 nM | 3.1 nM | COCC(CO)n1cccc(N2C[C@@H](c3ccc(Cl)cc3)[C@H](NC(=O)c3ccc(OC(F)F)cc3)C2=O)c1=O (stereo partly shown) [Example 118]
